SMILES strings stand for the structures. In brackets after ≈: the same amount, converted by molar mass.

For this data set the following is noted: buffer; pH 7.4; 200.0 µM.
Turning to `N/C(=N\OC(=O)c1cccs1)c1cccnc1`, the kinetic solubility – broadly, the concentration staying in solution when a stock, usually in DMSO, is diluted into the medium – is 33.1 µg/mL (≈ 134 µM). To `O=C(NC1CCN(Cc2ccccc2)CC1)c1ccc(Cl)cc1Cl` belongs above 54.5 µg/mL; to `Cc1nc(N2CCN(C(=O)c3ccco3)CC2)[nH]c(=O)c1C`, above 45.3 µg/mL; to `Cc1ccc(Nc2cc(C)nc3ccccc23)c(C)c1`, above 39.4 µg/mL.

With `Cc1cc(C)nc(SCc2ccc([N+](=O)[O-])cc2)n1`, the solubility (kinetic) is 6.1 µg/mL (≈ 22.2 µM).

On to `Cc1cc(C)nc(SCC(=O)N(C)C)n1`, for which the kinetic solubility is 31.7 µg/mL (≈ 141 µM).

Consider `Cc1ccc2nc(SCC(=O)c3ccccc3)nc(=O)n2c1`, for which the kinetic solubility was found to be 33 µg/mL (≈ 106 µM). `Cc1nc(CCNS(=O)(=O)c2cccnc2)cs1` had a kinetic solubility above 42.5 µg/mL. `O=C(CC(c1ccccc1)c1ccccc1)Nc1ccc(C(=O)O)cc1` had a solubility (kinetic) above 51.8 µg/mL.

On to `CN(C)c1cccc(C(=O)N/C=C/n2cnc3cc(C(F)(F)F)ccc32)c1`, for which the solubility (kinetic) came out at 0.4 µg/mL (≈ 1.07 µM). Turning to `CN1CCN(CC(=O)c2ccccc2F)CC1.O=C(O)C(=O)O`, the kinetic solubility came to 42.9 µg/mL.

In the case of `O=C1NC(Cc2ccccc2)C(=O)Nc2ccc(Br)cc21` (configuration not stated), the kinetic solubility was found to be 15.7 µg/mL (≈ 45.5 µM). This solubility kinetic lies about 2.7-fold lower than the previous one. In turn, `Cc1cc(C(=O)CN2C(=O)NC(C)(c3cc(F)ccc3F)C2=O)c(C)n1C1CC1` (configuration not stated) gave a kinetic solubility of 48.9 µg/mL (≈ 122 µM). Under `N#CCCN1CCN(C(=O)c2c(N)no[n+]2[O-])CC1` stands above 39.9 µg/mL. As for `COc1ccc(-c2noc(CNC(=O)c3ccoc3C)n2)cc1`, the solubility (kinetic) was 37.8 µg/mL (≈ 121 µM). For `Cl.O=[N+]([O-])c1ccc(OCC(O)CNC2CCCC2)cc1` (configuration not stated), the kinetic solubility is above 47.5 µg/mL. Under `CCN(CC)CCC/C(=N\O)C(O)(c1ccccc1)c1ccccc1` stands above 51.1 µg/mL; under `COc1ccc(C(=O)/C=C2\Sc3ccccc3N2C)cc1`, 0.7 µg/mL (≈ 2.35 µM). In turn, `CN1CC(=O)N/C1=N\C(=O)Nc1ccc(O)cc1` showed a kinetic solubility above 37.2 µg/mL. As to `CCSc1nc(-c2cccs2)nc2ccccc12`, the solubility (kinetic) was found to be 0.3 µg/mL (≈ 1.1 µM).

Turning to `Cc1ccc(NC(=O)c2cnccn2)nc1`, the kinetic solubility was above 32.1 µg/mL.

The molecule `O=C(O)c1ccccc1-n1cccc1C(=O)O` gave a solubility (kinetic) above 34.7 µg/mL. To `O=[N+]([O-])c1cccc(CN2CCN(c3ncccn3)CC2)c1` belongs 32.2 µg/mL (≈ 108 µM); to `Cc1cc(C=O)c(C)n1C(C)C`, 23 µg/mL (≈ 139 µM). To `C=CCN1C(=O)N(CC=C)c2cccc3cccc1c23` belongs 0.4 µg/mL (≈ 1.51 µM); to `Cn1cccc1C(=O)OCC(=O)c1c[nH]c2ccccc12`, 9.9 µg/mL (≈ 35.1 µM); to `O=[N+]([O-])c1ccc(O)c(Nc2c([N+](=O)[O-])ccc3nonc23)c1`, above 47.6 µg/mL. With `COC(=O)Cn1cc(C(=O)C(F)(F)F)c2ccccc21`, the solubility (kinetic) worked out at 13.2 µg/mL (≈ 46.3 µM). In turn, `Cc1ncc(CSc2nccc(=O)[nH]2)c(CO)c1O` registered a solubility (kinetic) above 41.9 µg/mL. In turn, `OC(CCN1CCC2(CC1)OCCO2)C(F)(F)F` (configuration not stated) gave a solubility (kinetic) above 40.4 µg/mL.

Take `CC(C)(C)CC(=O)O/N=C(\N)c1ccncc1`: the solubility (kinetic) is above 35.3 µg/mL. For `C[C@@H]1CN(Cc2nc(-c3ccc(Cl)cc3)no2)C[C@H](C)O1`, the kinetic solubility came out at 44 µg/mL (≈ 143 µM). Consider `CN(C)c1cccc(Oc2nc3c(c(=O)n(C)c(=O)n3C)n2C)c1`, for which the kinetic solubility is 32.4 µg/mL (≈ 98.4 µM). Molecule `Nc1cccc2c1C(=O)N(CCOc1ccccc1F)C2=O` had a kinetic solubility of 20.3 µg/mL (≈ 67.6 µM).

With `O=[N+]([O-])c1ccccc1S(=O)(=O)N1CCN(c2ccccc2)CC1`, the solubility (kinetic) is 7.2 µg/mL (≈ 20.7 µM). `Cc1ccc(NC(=O)Cn2c(=O)oc3ccccc32)cc1` gave a kinetic solubility of 7.2 µg/mL (≈ 25.5 µM). On to `COc1ccccc1NC1=C(Cl)C(=O)OC1OC(=O)c1ccco1` (configuration not stated), for which the solubility (kinetic) amounted to 47.3 µg/mL (≈ 135 µM). `COc1cccc2cc(C(N)=O)oc12` came in with a kinetic solubility above 28.7 µg/mL. In the case of `CCOC(=O)c1c(NC(C)=O)sc(C(=O)NC2CCCC2)c1C`, the solubility (kinetic) was found to be 1 µg/mL (≈ 2.95 µM). Turning to `Cc1cc(C)cc(OC(=O)c2cccnc2)c1`, the solubility (kinetic) worked out at 30.6 µg/mL (≈ 135 µM). To `O=C1C(Cl)=C(N2CCCC2)C(=O)N1c1ccccc1F` belongs above 44.2 µg/mL. `Nc1c(Cl)ncnc1NCC(O)CO` (configuration not stated) returned a kinetic solubility above 32.8 µg/mL. `CCCN1C(=O)c2ccccc2NC1c1ccc(O)c(OCC)c1` (configuration not stated) had a kinetic solubility above 49 µg/mL. For the molecule `CCc1ccccc1NC(=O)CCOc1ccccc1`, the solubility (kinetic) came out at 39 µg/mL (≈ 145 µM). The molecule `CC(C)=CC(=O)OCc1csc(CC(=O)Nc2ccccc2C)n1` returned a solubility (kinetic) above 51.7 µg/mL. Regarding `Nc1ccc(C(=O)Nc2ccccc2N)cc1`, the kinetic solubility is above 34.1 µg/mL. `CCC(C)(C)NC(=O)CN(C(=O)c1ccc(N2CCCC2)nc1)c1ccc(F)cc1`: the kinetic solubility came to 60.7 µg/mL (≈ 147 µM). `O=C(COC(=O)c1ccc([N+](=O)[O-])s1)c1ccc[nH]1`: the kinetic solubility stood at 22.5 µg/mL (≈ 80.3 µM). Consider `CCNc1ccc([N+](=O)[O-])cc1`, for which the kinetic solubility was 19.9 µg/mL (≈ 120 µM). The solubility kinetic values of the last two molecules are within 1.5-fold of each other. To `CCN(CC)C(=O)c1sc(NC(=O)C(C)C)c(C#N)c1C` belongs above 46.1 µg/mL.

With `O=C(NC(=S)Nc1ccc(Br)c(Cl)c1)C1CC1`, the kinetic solubility is below 0.4 µg/mL. With `CC(=O)c1c(C)[nH]c(C(=O)N2CC(C)CC(C)C2)c1C` (configuration not stated), the kinetic solubility was above 41.5 µg/mL.

(Values after PubChem BioAssay AID1996.)
